Assay results: US9890171B2, “Aldosterone synthase inhibitors” (Boehringer Ingelheim International GmbH, priority 2014, dated 2018)

Molecular target: aldosterone synthase (CYP11B2) (Macaca fascicularis, UniProt A0A2K5UPL9)
Assay: aldosterone synthase inhibition assay
Format: biochemical, cynomolgus monkey
Details: cynomolgus adrenal gland mitochondria, 2 μM corticosterone, aldosterone quantified by mass spectrometry
In short: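 Cynomolgus adrenal mitochondria ([…]) used as CYP11B2 source with 2 μM corticosterone in 100 mM potassium phosphate pH 7.4, 1% DMSO; reaction started with 1 mM NADPH, run 60-90 min at 37° C. Aldosterone measured by mass spectrometry; IC50 from 4-parameter logistic fit, no-NADPH blank as 0%.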

Chain of aldosterone synthase (CYP11B2) (A0A2K5UPL9 1-503): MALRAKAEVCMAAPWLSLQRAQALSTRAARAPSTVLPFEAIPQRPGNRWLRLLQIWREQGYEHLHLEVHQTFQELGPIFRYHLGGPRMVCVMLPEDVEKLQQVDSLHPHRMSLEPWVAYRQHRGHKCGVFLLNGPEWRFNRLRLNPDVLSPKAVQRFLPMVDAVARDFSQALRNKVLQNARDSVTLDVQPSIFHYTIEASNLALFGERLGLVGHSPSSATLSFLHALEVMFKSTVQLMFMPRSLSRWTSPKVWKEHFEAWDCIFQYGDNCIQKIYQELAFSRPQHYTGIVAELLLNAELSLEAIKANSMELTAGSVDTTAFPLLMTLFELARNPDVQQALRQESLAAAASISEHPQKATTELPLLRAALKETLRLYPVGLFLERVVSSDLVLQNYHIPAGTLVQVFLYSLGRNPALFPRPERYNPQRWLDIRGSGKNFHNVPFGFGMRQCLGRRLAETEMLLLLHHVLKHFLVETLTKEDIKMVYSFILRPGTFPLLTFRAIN

Row | IC50 [nM] | Structure (SMILES)
1 | 611 | CCS(=O)(=O)NC1COCc2c(-c3ccc4c(c3)CC(=O)N4)cncc21 (single isomer, unassigned) [Compound 64, Ethanesulfonic acid [8-(2-oxo-2,3-dihydro-1H-indol-5-yl)-3,4-dihydro-1H-pyrano[4,3-c]pyridin-4-yl]-amide]
2 | 156 | OC1COCc2cncc(-c3ccc4cnccc4c3)c21 (single isomer, unassigned) [Compound 167, 5-Isoquinolin-6-yl-3,4-dihydro-1H-pyrano[3,4-c]pyridin-4-ol]
3 | 1000 | Cc1c(-c2cncc3c2COCC3O)cnn1C (single isomer, unassigned) [Compound 41, 8-(1,5-Dimethyl-1H-pyrazol-4-yl)-3,4-dihydro-1H-pyrano[4,3-c]pyridin-4-ol]
4 | 32.6 | CC(C)C(=O)NC1COCc2c(-c3ccc4cnn(C)c4c3)cncc21 (single isomer, unassigned) [Compound 77, N-[8-(1-Methyl-1H-indazol-6-yl)-3,4-dihydro-1H-pyrano[4,3-c]pyridin-4-yl]-isobutyramide]
5 | 279 | OC1COCc2c(-c3ccc4c(c3)COCC4(F)F)cncc21 (single isomer, unassigned) [Compound 200, 8-(4,4-Difluoro-isochroman-7-yl)-3,4-dihydro-1H-pyrano[4,3-c]pyridin-4-ol]
6 | 14 | O=c1ccc2cc(-c3cncc4c3COCC4O)ccc2o1 (single isomer, unassigned) [Compound 126, 6-(4-Hydroxy-3,4-dihydro-1H-pyrano[4,3-c]pyridin-8-yl)-chromen-2-one]
7 | 4880 | CC(=O)NC1COCc2c(-c3ccc4c(c3)CCC4=O)cncc21 (single isomer, unassigned) [Compound 151, N-[8-(1-Oxo-indan-5-yl)-3,4-dihydro-1H-pyrano[4,3-c]pyridin-4-yl]-acetamide]
8 | 51.1 | NC(=O)c1cccc2cc(-c3cncc4c3COCC4O)cnc12 (single isomer, unassigned) [Compound 105, 3-(4-Hydroxy-3,4-dihydro-1H-pyrano[4,3-c]pyridin-8-yl)-quinoline-8-carboxylic acid amide]
9 | 103 | O=C1CCCc2cc(-c3cncc4c3COCC4O)ccc21 (single isomer, unassigned) [Compound 117, 6-(4-Hydroxy-3,4-dihydro-1H-pyrano[4,3-c]pyridin-8-yl)-3,4-dihydro-2H-naphthalen-1-one]
10 | 48 | Cn1ncc2c1CC(c1cncc3c1COCC3O)CC2 (single isomer, unassigned) [Compound 191, 8-(1-Methyl-4,5,6,7-tetrahydro-1H-indazol-6-yl)-3,4-dihydro-1H-pyrano[4,3-c]pyridin-4-ol]
11 | 790 | O=C1NCCc2cc(-c3cncc4c3COCC4O)ccc21 (single isomer, unassigned) [Compound 120, 6-(4-Hydroxy-3,4-dihydro-1H-pyrano[4,3-c]pyridin-8-yl)-3,4-dihydro-2H-isoquinolin-1-one]
12 | 330 | CCS(=O)(=O)NC1COCc2c(-c3ccc4c(c3)COCC4(F)F)cncc21 (single isomer, unassigned) [Compound 196, Ethanesulfonic acid [8-(4,4-difluoro-isochroman-7-yl)-3,4-dihydro-1H-pyrano[4,3-c]pyridin-4-yl]-amide]
13 | 67 | Cn1ncc2c1C=C(c1cncc3c1COCC3O)CC2 (single isomer, unassigned) [Compound 189, 8-(1-Methyl-4,5-dihydro-1H-indazol-6-yl)-3,4-dihydro-1H-pyrano[4,3-c]pyridin-4-ol]
14 | 179 | CCC(=O)NC1COCc2c(-c3ccc4c(c3)CC(=O)N4)cncc21 (single isomer, unassigned) [Compound 59, N-[8-(2-Oxo-2,3-dihydro-1H-indol-5-yl)-3,4-dihydro-1H-pyrano[4,3-c]pyridin-4-yl]-propionamide]
15 | 15.9 | CCS(=O)(=O)NC1COCc2c(-c3ccc4c(F)nn(C)c4c3)cncc21 (single isomer, unassigned) [Compound 68, Ethanesulfonic acid [8-(3-fluoro-1-methyl-1H-indazol-6-yl)-3,4-dihydro-1H-pyrano[4,3-c]pyridin-4-yl]-amide]
16 | 690 | Cc1n[nH]c2cc(-c3cncc4c3COCC4O)ccc12 (single isomer, unassigned) [Compound 11, 8-(3-Methyl-1H-indazol-6-yl)-3,4-dihydro-1H-pyrano[4,3-c]pyridin-4-ol]
17 | 128 | Cc1ncc2ccc(-c3cncc4c3COC3(CC3)C4O)cn12 (single isomer, unassigned) [Compound 88, 8-(3-methylimidazo[1,5-a]pyridin-6-yl)spiro[1,4-dihydropyrano[4,3-c]pyridine-3,1′-cyclopropane]-4-ol]
18 | 21 | Cc1n[nH]c2ccc(-c3cncc4c3COCC4O)cc12 (single isomer, unassigned) [Compound 12, 8-(3-Methyl-1H-indazol-5-yl)-3,4-dihydro-1H-pyrano[4,3-c]pyridin-4-ol]

Row | IC50 [nM] | Structure (SMILES)
19 | 160 | OC1COCc2c(-c3ccc4[nH]ccc4c3)cncc21 (single isomer, unassigned) [Compound 31, 8-(1H-Indol-5-yl)-3,4-dihydro-1H-pyrano[4,3-c]pyridin-4-ol]
20 | 766 | Cc1nnc2ccc(-c3cncc4c3COCC4O)cn12 (single isomer, unassigned) [Compound 95, 8-(3-Methyl-[1,2,4]triazolo[4,3-a]pyridin-6-yl)-3,4-dihydro-1H-pyrano[4,3-c]pyridin-4-ol]
21 | 13 | O=c1ccoc2cc(-c3cncc4c3COCC4O)ccc12 (single isomer, unassigned) [Compound 110, 7-(4-Hydroxy-3,4-dihydro-1H-pyrano[4,3-c]pyridin-8-yl)-chromen-4-one]
22 | 255 | O=C1NCCc2cc(-c3cncc4c3COC3(CC3)C4O)ccc21 (single isomer, unassigned) [Compound 84, 6-[4-hydroxyspiro[1,4-dihydropyrano[4,3-c]pyridine-3,1′-cyclopropane]-8-yl]-3,4-dihydro-2H-isoquinolin-1-one]
23 | 70 | CC(C)(O)CC(=O)NC1COCc2c(-c3ccc4c(c3)CCC4=O)cncc21 (single isomer, unassigned) [Compound 153, 3-Hydroxy-3-methyl-N-[8-(1-oxo-indan-5-yl)-3,4-dihydro-1H-pyrano[4,3-c]pyridin-4-yl]-butyramide]
24 | 149 | CN1C(=O)Cc2cc(-c3cncc4c3COCC4O)ccc21 (single isomer, unassigned) [Compound 54, 5-(4-Hydroxy-3,4-dihydro-1H-pyrano[4,3-c]pyridin-8-yl)-1-methyl-1,3-dihydro-indol-2-one]
25 | 186 | OC1COCc2c(-c3cnc4[nH]ccc4c3)cncc21 (single isomer, unassigned) [Compound 40, 8-(1H-Pyrrolo[2,3-b]pyridin-5-yl)-3,4-dihydro-1H-pyrano[4,3-c]pyridin-4-ol]
26 | 28.5 | Cn1ncc2ccc(-c3cncc4c3COCC4NS(C)(=O)=O)cc21 (single isomer, unassigned) [Compound 81, N-[8-(1-Methyl-1H-indazol-6-yl)-3,4-dihydro-1H-pyrano[4,3-c]pyridin-4-yl]-methanesulfonamide]
27 | 34.6 | CCC(=O)NC1COCc2c(-c3ccc4c(cnn4C)c3)cncc21 (single isomer, unassigned) [Compound 73, N-[8-(1-Methyl-1H-indazol-5-yl)-3,4-dihydro-1H-pyrano[4,3-c]pyridin-4-yl]-propionamide]
28 | 4400 | Cn1ncc2c(C#N)cc(-c3cncc4c3COCC4(C)O)cc21 (single isomer, unassigned) [Compound 174, 6-(4-Hydroxy-4-methyl-3,4-dihydro-1H-pyrano[4,3-c]pyridin-8-yl)-1-methyl-1H-indazole-4-carbonitrile]
29 | 67 | N#CC1CC=C(c2cncc3c2COCC3O)CC1 (single isomer, unassigned) [Compound 186, 4-(4-Hydroxy-3,4-dihydro-1H-pyrano[4,3-c]pyridin-8-yl)-cyclohex-3-enecarbonitrile]
30 | 312 | CCC(=O)NC1COCc2c(-c3ccc4onc(C)c4c3)cncc21 (single isomer, unassigned) [Compound 156, N-[8-(3-Methyl-benzo[d]isoxazol-5-yl)-3,4-dihydro-1H-pyrano[4,3-c]pyridin-4-yl]-propionamide]
31 | 31.3 | CCS(=O)(=O)NC1COCc2c(-c3ccc4cnn(C)c4c3)cncc21 (single isomer, unassigned) [Compound 83, Ethanesulfonic acid [8-(1-methyl-1H-indazol-6-yl)-3,4-dihydro-1H-pyrano[4,3-c]pyridin-4-yl]-amide]
32 | 681 | OC1COCc2c(-c3ccc4scnc4c3)cncc21 (single isomer, unassigned) [Compound 20, 8-Benzothiazol-5-yl-3,4-dihydro-1H-pyrano[4,3-c]pyridin-4-ol]
33 | 10000 | CCS(=O)(=O)NC1COCc2c(-c3ccc4c(c3)C(O)CCO4)cncc21 (single isomer, unassigned) [Compound 136, Ethanesulfonic acid [8-(4-hydroxy-chroman-6-yl)-3,4-dihydro-1H-pyrano[4,3-c]pyridin-4-yl]-amide]
34 | 38 | CCC(=O)NC1COCc2c(-c3cc4c(cnn4C)cc3F)cncc21 (single isomer, unassigned) [Compound 193, N-[8-(5-Fluoro-1-methyl-1H-indazol-6-yl)-3,4-dihydro-1H-pyrano[4,3-c]pyridin-4-yl]-propionamide]
35 | 333 | OC1COCc2c(-c3ccc4c(c3)OCCCO4)cncc21 (single isomer, unassigned) [Compound 28, 8-(3,4-Dihydro-2H-benzo[b][1,4]dioxepin-7-yl)-3,4-dihydro-1H-pyrano[4,3-c]pyridin-4-ol]

Row | Structure (SMILES) | IC50 [nM]
36 | N#Cc1ccc(-c2cncc3c2COCC3O)cc1Cl (single isomer, unassigned) [Compound 7, 2-Chloro-4-(4-hydroxy-3,4-dihydro-1H-pyrano[4,3-c]pyridin-8-yl)-benzonitrile] | 6.1
